Data: PubChem BioAssay AID1259407 (Chemical Carcinogenesis Research Information System (CCRIS), 2018)
Calls of active or inactive are those of the source. The rule behind the calls is not given here.

Tested on: CCRIS mutagenicity, Ames/micronucleus/aberration tests
Assay: CCRIS mutagenicity studies
[1] = Test System: AMES SALMONELLA TYPHIMURIUM, Strain/Indicator: TA97, Metabolic Activation: NONE, Method: PREINCUBATION
[2] = Test System: AMES SALMONELLA TYPHIMURIUM, Strain/Indicator: TA98, Metabolic Activation: NONE, Method: PREINCUBATION
[3] = Test System: AMES SALMONELLA TYPHIMURIUM, Strain/Indicator: TA100, Metabolic Activation: NONE, Method: PREINCUBATION
[4] = Test System: AMES SALMONELLA TYPHIMURIUM, Strain/Indicator: TA102, Metabolic Activation: NONE, Method: PREINCUBATION
[5] = Test System: AMES SALMONELLA TYPHIMURIUM, Strain/Indicator: TA98, Metabolic Activation: NONE, Method: STANDARD PLATE
[6] = Test System: AMES SALMONELLA TYPHIMURIUM, Strain/Indicator: TA100, Metabolic Activation: NONE, Method: STANDARD PLATE

Question: Which results are given for Cc1[nH]ccc2c1[nH]c1cc(=O)ccc12?
Answer: mutagenic call [1]: active; positive; mutagenic call (Test System: AMES SALMONELLA TYPHIMURIUM, Strain/Indicator: TA97, Metabolic Activation: RAT, LIVER, S-9, AROCLOR 1254, Method: PREINCUBATION): inactive; negative; mutagenic call [2]: inactive; negative; mutagenic call (Test System: AMES SALMONELLA TYPHIMURIUM, Strain/Indicator: TA98, Metabolic Activation: RAT, LIVER, S-9, AROCLOR 1254, Method: PREINCUBATION): inactive; negative; mutagenic call [3]: inactive; negative; mutagenic call (Test System: AMES SALMONELLA TYPHIMURIUM, Strain/Indicator: TA100, Metabolic Activation: RAT, LIVER, S-9, AROCLOR 1254, Method: PREINCUBATION): inactive; negative; mutagenic call [4]: inactive; negative; mutagenic call (Test System: AMES SALMONELLA TYPHIMURIUM, Strain/Indicator: TA102, Metabolic Activation: RAT, LIVER, S-9, AROCLOR 1254, Method: PREINCUBATION): inactive; negative

Question: Which results are given for CN1CCNCC1?
Answer: mutagenic call [2]: inactive; negative; mutagenic call (Test System: AMES SALMONELLA TYPHIMURIUM, Strain/Indicator: TA98, Metabolic Activation: RAT, LIVER, S-9, PCB, Method: PREINCUBATION): inactive; negative; mutagenic call [3]: inactive; negative; mutagenic call (Test System: AMES SALMONELLA TYPHIMURIUM, Strain/Indicator: TA100, Metabolic Activation: RAT, LIVER, S-9, PCB, Method: PREINCUBATION): inactive; negative

Question: For CC1=CC(=O)c2c(O)cccc2C1=O, which mutagenic call [1] is on record?
Answer: active; positive

Question: And the mutagenic call (Test System: AMES SALMONELLA TYPHIMURIUM, Strain/Indicator: TA97, Metabolic Activation: RAT, LIVER, S-9, PHENOBARBITAL AND 5,6-BENZOFLAVONE, Method: PREINCUBATION)?
Answer: active; positive

Question: And the mutagenic call (Test System: AMES SALMONELLA TYPHIMURIUM, Strain/Indicator: TA98, Metabolic Activation: HAMSTER LIVER S-9, AROCLOR 1254, Method: STANDARD PLATE)?
Answer: inactive; negative

Question: What about the mutagenic call [2] of the same molecule?
Answer: inactive; negative

Question: And the mutagenic call [5]?
Answer: inactive; negative

Question: What about the mutagenic call (Test System: AMES SALMONELLA TYPHIMURIUM, Strain/Indicator: TA98, Metabolic Activation: RAT LIVER S-9, AROCLOR 1254, Method: STANDARD PLATE) of the same molecule?
Answer: inactive; negative

Question: What about the mutagenic call (Test System: AMES SALMONELLA TYPHIMURIUM, Strain/Indicator: TA98, Metabolic Activation: RAT, LIVER, S-9, PHENOBARBITAL AND 5,6-BENZOFLAVONE, Method: PREINCUBATION) of the same molecule?
Answer: inactive; negative

Question: What about the mutagenic call (Test System: AMES SALMONELLA TYPHIMURIUM, Strain/Indicator: TA100, Metabolic Activation: HAMSTER LIVER S-9, AROCLOR 1254, Method: STANDARD PLATE) of the same molecule?
Answer: inactive; negative

Question: What about the mutagenic call [3] of the same molecule?
Answer: inactive; negative

Question: And the mutagenic call [6]?
Answer: inactive; negative

Question: And the mutagenic call (Test System: AMES SALMONELLA TYPHIMURIUM, Strain/Indicator: TA100, Metabolic Activation: RAT LIVER S-9, AROCLOR 1254, Method: STANDARD PLATE)?
Answer: inactive; negative

Question: And the mutagenic call (Test System: AMES SALMONELLA TYPHIMURIUM, Strain/Indicator: TA100, Metabolic Activation: RAT, LIVER, S-9, PHENOBARBITAL AND 5,6-BENZOFLAVONE, Method: PREINCUBATION)?
Answer: active; positive

Question: What about the mutagenic call [4] of the same molecule?
Answer: inactive; negative

Question: And the mutagenic call (Test System: AMES SALMONELLA TYPHIMURIUM, Strain/Indicator: TA102, Metabolic Activation: NONE, Method: STANDARD PLATE)?
Answer: inactive; negative

Question: And the mutagenic call (Test System: AMES SALMONELLA TYPHIMURIUM, Strain/Indicator: TA102, Metabolic Activation: RAT, LIVER, S-9, PHENOBARBITAL AND 5,6-BENZOFLAVONE, Method: PREINCUBATION)?
Answer: inactive; negative

Question: What about the mutagenic call (Test System: AMES SALMONELLA TYPHIMURIUM, Strain/Indicator: TA104, Metabolic Activation: NONE, Method: PREINCUBATION) of the same molecule?
Answer: active; positive

Question: And the mutagenic call (Test System: AMES SALMONELLA TYPHIMURIUM, Strain/Indicator: TA104, Metabolic Activation: RAT, LIVER, S-9, PHENOBARBITAL AND 5,6-BENZOFLAVONE, Method: PREINCUBATION)?
Answer: active; positive

Question: And the mutagenic call (Test System: AMES SALMONELLA TYPHIMURIUM, Strain/Indicator: TA1535, Metabolic Activation: HAMSTER LIVER S-9, AROCLOR 1254, Method: STANDARD PLATE)?
Answer: inactive; negative

Question: What about the mutagenic call (Test System: AMES SALMONELLA TYPHIMURIUM, Strain/Indicator: TA1535, Metabolic Activation: NONE, Method: PREINCUBATION) of the same molecule?
Answer: inactive; negative

Question: What about the mutagenic call (Test System: AMES SALMONELLA TYPHIMURIUM, Strain/Indicator: TA1535, Metabolic Activation: NONE, Method: STANDARD PLATE) of the same molecule?
Answer: inactive; negative

Question: What about the mutagenic call (Test System: AMES SALMONELLA TYPHIMURIUM, Strain/Indicator: TA1535, Metabolic Activation: RAT LIVER S-9, AROCLOR 1254, Method: STANDARD PLATE) of the same molecule?
Answer: inactive; negative

Question: And the mutagenic call (Test System: AMES SALMONELLA TYPHIMURIUM, Strain/Indicator: TA1535, Metabolic Activation: RAT, LIVER, S-9, PHENOBARBITAL AND 5,6-BENZOFLAVONE, Method: PREINCUBATION)?
Answer: inactive; negative

Question: What about the mutagenic call (Test System: AMES SALMONELLA TYPHIMURIUM, Strain/Indicator: TA1537, Metabolic Activation: HAMSTER LIVER S-9, AROCLOR 1254, Method: STANDARD PLATE) of the same molecule?
Answer: inactive; negative

Question: What about the mutagenic call (Test System: AMES SALMONELLA TYPHIMURIUM, Strain/Indicator: TA1537, Metabolic Activation: NONE, Method: PREINCUBATION) of the same molecule?
Answer: inactive; negative

Question: What about the mutagenic call (Test System: AMES SALMONELLA TYPHIMURIUM, Strain/Indicator: TA1537, Metabolic Activation: NONE, Method: STANDARD PLATE) of the same molecule?
Answer: inactive; negative

Question: And the mutagenic call (Test System: AMES SALMONELLA TYPHIMURIUM, Strain/Indicator: TA1537, Metabolic Activation: RAT LIVER S-9, AROCLOR 1254, Method: STANDARD PLATE)?
Answer: inactive; negative

Question: And the mutagenic call (Test System: AMES SALMONELLA TYPHIMURIUM, Strain/Indicator: TA1537, Metabolic Activation: RAT, LIVER, S-9, PHENOBARBITAL AND 5,6-BENZOFLAVONE, Method: PREINCUBATION)?
Answer: active; positive

Question: What about the mutagenic call (Test System: AMES SALMONELLA TYPHIMURIUM, Strain/Indicator: TA1538, Metabolic Activation: NONE, Method: PREINCUBATION) of the same molecule?
Answer: inactive; negative

Question: What about the mutagenic call (Test System: AMES SALMONELLA TYPHIMURIUM, Strain/Indicator: TA1538, Metabolic Activation: RAT, LIVER, S-9, PHENOBARBITAL AND 5,6-BENZOFLAVONE, Method: PREINCUBATION) of the same molecule?
Answer: inactive; negative

Question: And the mutagenic call (Test System: AMES SALMONELLA TYPHIMURIUM, Strain/Indicator: TA2637, Metabolic Activation: NONE, Method: PREINCUBATION)?
Answer: active; positive

Question: What about the mutagenic call (Test System: AMES SALMONELLA TYPHIMURIUM, Strain/Indicator: TA2637, Metabolic Activation: RAT, LIVER, S-9, PHENOBARBITAL AND 5,6-BENZOFLAVONE, Method: PREINCUBATION) of the same molecule?
Answer: active; positive

Question: What about the mutagenic call (Test System: AMES SALMONELLA TYPHIMURIUM, Strain/Indicator: TA2638, Metabolic Activation: NONE, Method: STANDARD PLATE) of the same molecule?
Answer: inactive; negative

Question: What about the mutagenic call (Test System: Ames Salmonella typhimurium, Strain/Indicator: TA102, Metabolic Activation: None, Method: Preincubation) of the same molecule?
Answer: inactive; negative

Question: And the mutagenic call (Test System: Ames Salmonella typhimurium, Strain/Indicator: TA102, Metabolic Activation: Rat, Liver, S-9, Aroclor 1254 in 0.154 M KCl, Method: Preincubation)?
Answer: inactive; negative

Question: What about the mutagenic call (Test System: E. COLI, Strain/Indicator: WP2 (PKM101), Metabolic Activation: NONE, Method: STANDARD PLATE) of the same molecule?
Answer: inactive; negative

Question: And the mutagenic call (Test System: E. COLI, Strain/Indicator: WP2 UVRA (PKM101), Metabolic Activation: NONE, Method: STANDARD PLATE)?
Answer: inactive; negative

Question: And the mutagenic call (Test System: MOUSE LYMPHOMA, Strain/Indicator: L5178Y (TK+/TK-), Metabolic Activation: NONE, Method: SUSPENSION/PLATE)?
Answer: inactive; positive. reevaluation of results: negative

Question: What about the mutagenic call (Test System: MOUSE LYMPHOMA, Strain/Indicator: L5178Y (TK+/TK-), Metabolic Activation: RAT, LIVER, S-9, AROCLOR 1254, Method: SUSPENSION/PLATE) of the same molecule?
Answer: active; positive. reevaluation of results: equivocal

Question: Which mutagenic call [5] does the source give for Brc1ccc2c(c1)[C@@H]1O[C@@H]1[C@H]1CCCC[C@H]21 here?
Answer: inactive; negative

Question: What about the mutagenic call [6] of the same molecule?
Answer: inactive; negative
